Legend:
NALM-6 cells = assay: In situ TUNEL apoptosis assay; format: cell-based; conditions: Homo sapiens, 10-500 μM, 48 hours, read-out: EC50, percentage of apoptotic cells (TUNEL)
Excerpt: Apoptosis Assays Cells were examined for apoptotic changes after treatment with compound 6 by the in situ terminal […] transferase-mediated dUTP end-labeling (TUNEL) assay using the ApopTag apoptosis detection kit (Oncor, Gaithersburg, Md.) according to the manufacturer's recommendations, as detailed in our earlier reports (Zhu, D. -M., et al., Clin. Can. Res. 4: 2967-2976, 1998; D'Cruz, O., P., G., and Uckun, F. M. Biology of Reproduction. 58: 1515-1526, 1998).
To confirm that compound 6 can induce apoptosis in leukemia cells, the TdT-mediated labeling of 3′-OH termini with digoxigenin-conjugated UTP using the in situ TUNEL assay method combined with confocal laser scanning microscopy was employed. At 48 hours after treatment with compound 6 at concentrations ranging from 10 μM to 500 μM, NALM-6 cells were examined for digoxigenin-dUTP incorporation using FITC-conjugated anti-digoxigenin (green fluorescence) and propidium iodide counterstaining (red fluorescence). […] FIG. 8B.1 and 8B.2 depict the two-color confocal microscopy images of vehicle-treated control cells and cells treated with 100 μM compound 6. […] Because of their exquisite sensitivity in detecting DNA fragments released from a small percentage of apoptotic cells, the DNA gel assays of apoptosis are uniquely suited to examine the nonspecific toxicity of new antileukemic agents.

M24-MET (Melanoma) = assay: Methylcellulose clonogenic assay; format: cell-based
Description: (§1) The antileukemic activity of compound 6 against clonogenic tumor cells was examined using a methylcellulose colony assay system (Uckun, F. M., et al., J. Exp. Med. 163: 347-368, 1986; Messinger, Y., et al., Clin Cancer Res. 4: 165-70, 1998). In brief, cells (10^5/ml in RPMI-10% FBS) were treated overnight at 37° C. with compound 6 at varying concentrations. After treatment, cells were washed twice, plated at 10^4 or 10^5 cells/ml in RPMI-10% FMS-0.9% methylcellulose in Petri dishes, and cultured for 7 days at 37° C. in a humidified 5% CO2 incubator. Subsequently, leukemic cell (or tumor cell) colonies were enumerated using an inverted phase-contrast microscope. The percent inhibition of colony formation was calculated using the following formula:
(§2) % Inhibition=1−mean number of colonies in test culture×100 mean number of colonies in control culture

MOLT-3 (T-ALL) = assay: Methylcellulose clonogenic assay; format: cell-based; conditions: MOLT-3, 100 μM
Description: as §1, §2

RAMOS (B-ALL) = assay: Methylcellulose clonogenic assay; format: cell-based
Description: as §1, §2

C57BL/6 recipients = assay: Allogeneic islet transplantation (BALB/c islets); format: in vivo, mouse
Description: Islets were hand-picked 3-4 times under the dissecting scope before islets were free of exocrine tissue, vessels, lymph nodes and ducts and ready for transplantation.
Four hundred islets were placed in Hamilton syringe and transplanted under the left kidney capsule of each diabetic recipient mouse. Recipients were rendered diabetic with a single i.p. dose of streptozotocin (200 mg/kg; Sigma, St. Louis, Mo.) 1 wk before transplantation. Blood glucose level was measured by One Touch Profile glucose monitor system (Lifescan, Milpitas, Calif.). […] Allograft function was monitored by serial blood glucose measurements. […] All injections were given i.p.
Kidneys bearing grafts were removed, fixed in 10% formalin and embedded in paraffin. Serial sections of graft area were cut and stained with hematoxylin and eosin. For insulin staining, sections were stained by immunoperoxidase method using 1:100 dilution of polyclonal guinea pig anti-insulin antibody (Gpx Insulin, Dako, Carpinteria, Calif.) and 1:100 dilution of secondary antibody conjugated to horse radish peroxidase (Guinea Pig Immunoglobulins HRP, Dako, Carpinteria, Calif.). Sections were briefly counterstained with hematoxylin and mounted for light microscopic examination.

C57BL/6 males = assay: Splenocyte populations after in vivo treatment (FACS); set-up: species or system mouse; conditions: 130 mg/kg for 10 days
Description: All Abs were purchased from Pharmingen, San Diego, Calif. Stained splenocytes were analyzed by FACS Calibur, as described above.

SMILES: COc1cc2ncnc(Nc3ccc(O)cc3)c2cc1OC [WHI-P131, 4-(4′-hydroxyl-phenyl)-amino-6,7-dimethoxyquinazoline]
- EC50 (NALM-6 cells): 84.6 µM
- Mean No. of Colonies/10^5 Cells (M24-MET (Melanoma); 0.3 μM): 312 (238, 386)
- Mean No. of Colonies/10^5 Cells (M24-MET (Melanoma); 1 μM): 287 (157, 418)
- Mean No. of Colonies/10^5 Cells (M24-MET (Melanoma); 3 μM): 390 (280, 500)
- Mean No. of Colonies/10^5 Cells (M24-MET (Melanoma); 10 μM): 301 (249, 353)
- Mean No. of Colonies/10^5 Cells (M24-MET (Melanoma); 30 μM): 599 (534, 664)
- inhibition at 0.3 µM (M24-MET (Melanoma); Homo sapiens, M24met, 0.3 μM): 0%
- inhibition at 1 µM (M24-MET (Melanoma); Homo sapiens, M24met, 1 μM): 0%
- inhibition at 3 µM (M24-MET (Melanoma); Homo sapiens, M24met, 3 μM): 0%
- inhibition at 10 µM (M24-MET (Melanoma); Homo sapiens, M24met, 10 μM): 0%
- inhibition at 30 µM (M24-MET (Melanoma); Homo sapiens, M24met, 30 μM): 0%
- inhibition at 100 µM (MOLT-3 (T-ALL); Homo sapiens): > 99.9%
- Mean No. of Colonies/10^5 Cells (MOLT-3 (T-ALL)): 1 (1, 1)
- Mean No. of Colonies/10^5 Cells (RAMOS (B-ALL); 30 μM): 2 (0, 4)
- inhibition at 30 µM (RAMOS (B-ALL); Homo sapiens): 99.8%
- islet allograft mean survival time (MST) (C57BL/6 recipients; 50 mg/kg daily i.p., controls 14.1±0.9): 24.7±3.4 days
- islet allograft mean survival time (MST) (C57BL/6 recipients; 75 mg/kg daily i.p.): 25.3±3.8 days
- percentages of CD3+, CD4+ and CD8+ T-cells and CD19+ B-cells vs vehicle (C57BL/6 males; data not shown): no differences
- number of CD4+ T-cells (C57BL/6 males; controls 20.5±0.6): 16.8±1.2 ×10^6
- number of CD3+ splenocytes (C57BL/6 males; controls 46.9±2.6): 37.7±3.2 ×10^6
- number of B-cells (C57BL/6 males; controls 78.2±6.1): 57.1±5.3 ×10^6
- Total number of splenocytes (C57BL/6 males; vehicle 154±8.5): 119±9.4 ×10^6

Reference: US6469013B2, “Therapeutic compounds” (Parker Hughes Institute, priority 1998, dated 2002)
